Experimental data: patent publication US20130039887A1, “Methods of Identifying and Using Anti-Viral Compounds” (KINETA, INC., priority 2010, published 2013)

How the values were obtained:
[1] = system: Influenza A virus WSN strain (A/WSN/33); experiment: Influenza A virus nucleoprotein ELISA / Western blot assay; type: cell-based; details: ELISA and Western blot
actin promoter = experiment: Actin promoter control cell line counter screen (β-actin-LUC); type: cell-based, human
Huh7, MRC5 and 293 cells = experiment: MTS cytotoxicity assay in multiple cell types (Huh7, MRC5, 293); type: cell-based, human
Protocol: All lead molecules chosen for further development mediate IRF-3 nuclear translocation and have antiviral activity against HCV. All induce dose-dependent activation of ISG expression in the absence of nonspecific promoter (β-actin) induction. To analyze in vitro cytotoxicity of lead agonist molecules, an MTS assay was conducted using multiple cell types (Huh7, human liver; MRC5, lung fibroblast; and 293, […]).

ISG54 promoter = experiment: ISG54-luciferase reporter assay in Huh7-ISG54-Luc cells; type: cell-based, human; details: dose response (5-50 μM), 24 h
HCV2a virus = experiment: HCV immunofluorescence antiviral / focus-forming assay in Huh7 cells; type: cell-based, Hepatitis C virus; details: Huh7 cells pre-treated 24 h (compounds 10 μM), HCV2a MOI 0.1-0.5
Protocol: HCV immunofluorescence antiviral assay: Huh7 cells are seeded on a 96-well plate at a density of 5×10^3 cells per well and grown for 24 hours. Compounds that have been diluted to 10 μM in media and contain a final concentration of 0.5% DMSO are added to each well and grown another 24 hours. The compound media solution is removed from the plate and stored in a clean tissue culture dish. Cell monolayers are washed with PBS and HCV2a virus is added at the stated MOI. Virus is incubated for 2-4 hours and then removed, the monolayers are washed with PBS and the compound solutions are replaced into each well.
The cells are grown overnight and then cells are fixed and stained for HCV proteins. All buffers and reagents used are from the Cellomics staining kits described above. HCV specific antibodies from either commercial sources or primary patient serum can be used to detect HCV infected cells in culture. […] The number of infected cells is counted and representative images are saved. […]
To measure levels of HCV infection with or without drug treatment the cells were stained for HCV specific staining using serum and a FITC conjugated fluorescent secondary antibody. […] Using an inverted fluorescent microscope the number of infected cells is quantitated (shown—FIG. 9 bottom panel). […]

Row | Compound | anti-influenza activity (viral nucleoprotein levels) [1] | nonspecific promoter induction (β-actin-LUC) (actin promoter) | cytotoxicity (MTS assay) (Huh7, MRC5 and 293 cells) | induction of the ISG54-luciferase reporter (ISG54 promoter) | HCV infection (infected cells stained for HCV proteins, IF assay) (HCV2a virus)
1 | N#Cc1c(-c2ccccc2)cc(-c2ccccc2)nc1SCC(=O)N1CCOCC1 [KIN400] | efficient, dose-dependent anti-influenza activity |  |  |  | 
2 | COc1ccc(NC(=O)Cn2c(=O)n(Cc3ccco3)c(=O)c3oc4ccccc4c32)c(OC)c1 [KIN500] | efficient, dose-dependent anti-influenza activity |  |  |  | 
3 | NS(=O)(=O)c1ccc(-c2ccc(/C=C3/SC(=S)N(Cc4ccco4)C3=O)o2)cc1 [KIN300] | efficient, dose-dependent anti-influenza activity | absence of nonspecific promoter induction | absence of cytotoxicity | dose-dependent induction | 
4 | Interferon |  |  |  |  | completely blocks HCV infection
